Molecular target: T1, rat MCH1 receptor (Rattus norvegicus, UniProt P97639)
T1 construct: operatively linked to DNA encoding the rat MCH1 receptor so as to permit expression thereof; expressed in transfected cells; host or cells: Human embryonic kidney Peak rapid 293 (Peakr293) cells, transient calcium phosphate transfection, membranes
Assay: Radioligand binding assay at cloned rat MCH1 receptor ([3H]Compound A)
Conditions: cloned rat MCH1, Peakr293 cell membranes, 0.08 nM [3H]Compound A, 25° C., 90 minutes; read-out: Ki(MCH-1)

T1 sequence (P97639 whole entry): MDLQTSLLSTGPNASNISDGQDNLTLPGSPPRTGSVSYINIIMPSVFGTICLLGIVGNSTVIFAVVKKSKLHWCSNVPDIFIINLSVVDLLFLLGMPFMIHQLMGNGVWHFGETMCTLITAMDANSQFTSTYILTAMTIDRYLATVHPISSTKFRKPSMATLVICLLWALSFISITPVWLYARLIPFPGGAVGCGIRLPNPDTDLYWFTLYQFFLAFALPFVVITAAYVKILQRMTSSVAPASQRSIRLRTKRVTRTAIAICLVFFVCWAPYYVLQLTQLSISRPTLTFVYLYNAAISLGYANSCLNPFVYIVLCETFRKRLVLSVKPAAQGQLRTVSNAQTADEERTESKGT

Ki [µM] | SMILES
0.0235 | CC(=O)Nc1cccc(C2CCN(CCCNC(=O)C(C)c3ccc(Cl)cc3)CC2)c1 (centres unmarked) [Example 95, N-(3-{4-[3-(ACETYLAMINO)PHENYL]-1-PIPERIDINYL}PROPYL)-2-(4-CHLOROPHENYL) PROPANAMIDE]
0.048 | CC(C)C(=O)Nc1cccc(C2CCN(CCCNC(=O)C3(c4ccc(Cl)cc4)CC3)CC2)n1 [Example 76, 1-(4-CHLOROPHENYL)-N-(3-{4-[6-(ISOBUTYRYLAMINO)-2-PYRIDINYL]-1-PIPERIDINYL} PROPYL)CYCLOPROPANECARBOXAMIDE]
0.0059 | CC(=O)Nc1cccc(C2CCN(CCCNC(=O)C(C)(C)c3ccc(Cl)cc3)CC2)c1 [Example 79, N-(3-{4-[3-(ACETYLAMINO)PHENYL]-1-PIPERIDINYL}PROPYL)-2-(4-CHLORO PHENYL)-2-METHYLPROPANAMIDE]
0.004 | CC(C)C(=O)Nc1cccc(C2CCN(CCCNC(=O)C3(c4ccc(Cl)cc4)CCCCC3)CC2)c1 [Example 45, 1-(4-CHLOROPHENYL)-N-(3-{4-[3-(ISOBUTYRYLAMINO)PHENYL]-1-PIPERIDINYL} PROPYL)CYCLOHEXANECARBOXAMIDE]
0.0032 | Cc1ccc(NC(=O)C(C)C)cc1C1CCN(CCCNC(=O)C2(c3ccc(Cl)cc3)CCCC2)CC1 [Example 81]
0.0121 | Cc1ccc(NC(=O)C(C)C)cc1C1CCN(CCCNC(=O)[C@@H](C)c2ccc(F)cc2)CC1 [Example 168, (2S)-2-(4-fluorophenyl)-N-(3-{4-[5-(isobutyrylamino)-2-methylphenyl]-1-piperidinyl}propyl) propanamide]
0.0137 | CC(C)C(=O)Nc1cccc(C2CCN(CCCNC(=O)C3(c4ccc(Cl)cc4)CCC3)CC2)c1 [Example 43, 1-(4-CHLOROPHENYL)-N-(3-{4-[3-(ISOBUTYRYLAMINO)PHENYL]-1-PIPERIDINYL} PROPYL)CYCLOBUTANECARBOXAMIDE]
0.0003 | CC(=O)Nc1cccc(C2CCN(CCCNC(=O)C(c3ccc(Cl)cc3)c3ccc(Cl)cc3)CC2)c1 [Example 55]
0.144 | CC(C)C(=O)Nc1ccc(C2CCN(CCCNC(=O)C(c3ccccc3)c3ccccc3)CC2)cc1 [Example 148]
0.0024 | Cc1ccc(NC(=O)C(C)C)cc1C1CCN(CCCNC(=O)C2(c3ccc(F)cc3Cl)CCCCC2)CC1 [Example 134]
0.0195 | CC(C)C(=O)Nc1cccc(C2CCN(CCCNC(=O)C(C)c3ccc(Cl)cc3)CC2)c1 (centres unmarked) [Example 37, 2-(4-CHLOROPHENYL)-N-(3-{4-[3-(ISOBUTYRYLAMINO)PHENYL]-1-PIPERIDINYL} PROPYL)PROPANAMIDE]
0.0203 | Cc1ccc(NC(=O)C(C)C)cc1C1CCN(CCCNC(=O)C(O)c2ccc(F)c(F)c2)CC1 (centres unmarked) [Example 153, N-{3-[1-(3-{[(3,4-difluorophenyl)(hydroxy)acetyl]amino}propyl)-4-piperdinyl]-4-methylphenyl}-2-methylpropanamide]
0.0029 | CC(C)C(=O)Nc1ccc(F)c(C2CCN(CCCNC(=O)C3(c4ccc(Cl)cc4)CCCC3)CC2)c1 [Example 128]
0.005 | Cc1ccc(NC(=O)C(C)C)cc1C1CCN(CCCNC(=O)C(C)c2ccc(Cl)cc2)CC1 (centres unmarked) [Example 100]
0.02 | CC[C@H](C(=O)NCCCN1CCC(c2cc(NC(=O)C(C)C)ccc2C)CC1)c1ccccc1 [Example 163, (2S)-N-(3-{4-[5-(isobutyrylamino)-2-methylphenyl]-1-piperidinyl}propyl)-2-phenylbutanamide]
0.0026 | Cc1ccc(NC(=O)C(C)C)cc1C1CCN(CCCNC(=O)C(C)(c2ccccc2)c2ccccc2)CC1 [Example 96]
0.0028 | CC(C)C(=O)Nc1cc(C2CCN(CCCNC(=O)C(c3ccc(F)cc3)c3ccc(F)cc3)CC2)ccc1F [Example 48, N-{5-[1-(3-{[BIS(4-FLUOROPHENYL)ACETYL]AMINO}PROPYL)-4-PIPERIDINYL]-2-FLUORO PHENYL}2-METHYLPROPANAMIDE]
0.0445 | CC(C)C(=O)Nc1cc(C2CCN(CCCNC(=O)C(C)c3ccc(F)cc3)CC2)ccc1F (centres unmarked) [Example 46]

Continued, compound first:

SMILES | Ki [µM]
CC(C)C(=O)Nc1cccc(C2CCN(CCCNC(=O)C(c3ccccc3)(c3ccccc3)c3ccccc3)CC2)c1 [Example 59] | 0.0043
CCCCCC(C(=O)NCCCN1CCC(c2cccc(NC(=O)C(C)C)c2)CC1)(c1ccccc1)c1ccccc1 [Example 11] | 0.0084
CCCC(=O)Nc1ccc(OC)c(C2CCN(CCCNC(=O)C(c3ccccc3)c3ccccc3)CC2)c1 [Example 22] | 0.136
CC(C)CC(=O)Nc1cccc(C2CCN(CCCNC(=O)C(c3ccccc3)c3ccccc3)CC2)c1 [Example 13] | 0.0118
CC(=O)Nc1cccc(C2CCN(CCCNC(=O)C3(c4ccc(Cl)cc4)CCCC3)CC2)c1 [Example 78, N-(3-{4-[3-(ACETYLAMINO)PHENYL]-1-PIPERIDINYL}PROPYL)-1-(4-CHLOROPHENYL) CYCLOPENTANECARBOXAMIDE] | 0.0067
CC(C)C(=O)Nc1cccc(C2CCN(CCCNC(=O)C(C)(c3ccccc3)c3ccccc3)CC2)n1 [Example 83] | 0.0103
CCCC(=O)Nc1cc(C2CCN(CCCNC(=O)C(c3ccccc3)c3ccccc3)CC2)ccc1F [Example 65] | 0.0049
CCC(=O)Nc1cccc(C2CCN(CCCNC(=O)C(c3ccc(F)cc3)c3ccc(F)cc3)CC2)c1 [Example 21, N-{3-[1-(3-{[2,2-BIS(4-FLUOROPHENYL)ACETYL]AMINO}PROPYL)-4-PIPERIDINYL] PHENYL}PROPANAMIDE] | 0.0007
O=C(Nc1cccc(C2CCN(CCCNC(=O)C3(c4ccc(F)cc4)CCCC3)CC2)c1)C1CC1 [Example 121, N-[3-(4-{3-[(CYCLOPROPYLCARBONYL)AMINO]PHENYL}-1-PIPERIDINYL) PROPYL]-1-(4-FLUOROPHENYL)CYCLOPENTANECARBOXAMIDE] | 0.0102
O=C(Nc1cccc(C2CCN(CCCNC(=O)C(c3ccc(Cl)cc3)c3ccc(Cl)cc3)CC2)c1)C1CC1 [Example 113, N-{3-[1-(3-{[2,2-BIS(4-CHLOROPHENYL)ACETYL]AMINO}PROPYL)-4-PIPERIDINYL] PHENYL}CYCLOPROPANECARBOXAMIDE] | 0.0008
CCN(CCCN1CCC(c2cccc(NC(=O)C(C)C)c2)CC1)C(=O)C(c1ccccc1)c1ccccc1 [Example 126] | 0.003
CC(=O)Nc1cccc(C2CCN(CCCNC(=O)C3(c4ccc(Cl)cc4)CCCCC3)CC2)c1 [Example 75, N-(3-{4-[3-(ACETYLAMINO)PHENYL]-1-PIPERIDINYL}PROPYL)-1-(4-CHLOROPHENYL) CYCLOHEXANECARBOXAMIDE] | 0.0047
CCC(=O)Nc1cccc(C2CCN(CCCNC(=O)C(CC)(c3ccccc3)c3ccccc3)CC2)c1 [Example 15, 2,2-DIPHENYL-N-(3-{4-[3-(PROPIONYLAMINO)PHENYL]-1-PIPERIDINYL}PROPYL) BUTANAMIDE] | 0.0089
CCC(=O)Nc1cccc(C2CCN(CCCNC(=O)C(Br)c3ccccc3)CC2)c1 (centres unmarked) [Example 10, N-[3-(1-{3-[(2-BROMO-2-PHENYLACETYL)AMINO]PROPYL}-4-PIPERIDINYL) PHENYL]PROPANAMIDE] | 0.083
CC(C)C(=O)Nc1cccc(C2CCN(CCCNC(=O)C(F)(F)c3ccccc3)CC2)c1 [Example 125, N-{3-[1-(3{[DIFLUORO(PHENYL)ACETYL]AMINO}PROPYL)-4-PIPERIDINYL] PHENYL}2-METHYLPROPANAMIDE] | 0.124
CC(=O)Nc1cccc(C2CCN(CCCNC(=O)C3(c4ccc(F)cc4)CCCC3)CC2)c1 [Example 72, N-(3-{4-[3-(ACETYLAMINO)PHENYL]-1-PIPERIDINYL}PROPYL)-1-(4-FLUOROPHENYL) CYCLOPENTANECARBOXAMIDE] | 0.0523
CC(C)C(=O)Nc1cccc(C2CCN(CCCNC(=O)C3(c4ccc(F)cc4Cl)CCCC3)CC2)c1 [Example 38] | 0.0284
CCCC(=O)Nc1cc(C2CCN(CCCNC(=O)C(C)(C)c3ccc(Cl)cc3)CC2)ccc1F [Example 110] | 0.0504
CC(C)C(=O)Nc1cccc(C2CCN(CCCNC(=O)C3(c4ccc(F)cc4)CCCC3)CC2)n1 [Example 66, 1-(4-FLUOROPHENYL)-N-(3-{4-[6-(ISOBUTYRYLAMINO)-2-pyridinyl]-piperidinyl}propyl) cyclopentanecarboxamide] | 0.0244
CC(C)C(=O)Nc1cc(C2CCN(CCCNC(=O)C(C)(c3ccccc3)c3ccccc3)CC2)ccc1F [Example 51] | 0.0118
O=C(Nc1cccc(C2CCN(CCCNC(=O)C(c3ccccc3)c3ccccc3)CC2)c1)OCc1ccccc1 [Example 140, Benzyl 3-(1-{3-[(Diphenylacetyl)Amino]Propyl}-4-Piperidinyl)Phenylcarbamate] | 0.18
CCCC(=O)Nc1cccc(C2CCN(CCCNC(=O)C3(c4ccc(F)cc4)CCCCC3)CC2)c1 [Example 87, N-(3-{4-[3-(BUTYRYLAMINO)PHENYL]-1-PIPERIDINYL}PROPYL)-1-(4-FLUOROPHENYL) CYCLOHEXANECARBOXAMIDE] | 0.0064
O=C(Nc1cccc(C2CCN(CCCNC(=O)C3(c4ccc(Cl)cc4)CC3)CC2)c1)C1CC1 [Example 118] | 0.0139
CCC(=O)Nc1cccc(C2CCN(CCCNC(=O)C3(c4ccc(F)cc4)CCCC3)CC2)c1 [Example 60] | 0.0413
CCCC(=O)Nc1cccc(C2CCN(CCCNC(=O)C(c3ccc(F)cc3)c3ccc(F)cc3)CC2)c1 [Example 27, N-{3-[1-(3-{[2,2-BIS(4-FLUOROPHENYL)ACETYL]AMINO}PROPYL)-4-PIPERIDINYL] PHENYL}BUTANAMIDE] | 0.0011
CCCC(=O)Nc1cc(C2CCN(CCCNC(=O)C3(c4ccc(F)cc4)CCCC3)CC2)ccc1F [Example 107] | 0.101
CCCC(=O)Nc1ccc(OC)c(C2CCN(CCCNC(=O)C(c3ccc(F)cc3)c3ccc(F)cc3)CC2)c1 [Example 26] | 0.0187
CC(C)OC(=O)Nc1cccc(C2CCN(CCCNC(=O)C(c3ccccc3)c3ccccc3)CC2)c1 [Example 144, Isopropyl 3-(1-{3-[(Diphenylacetyl)Amino]Propyl}-4-Piperidinyl) Phenylcarbamate] | 0.0332
O=C(Nc1cccc(C2CCN(CCCNC(=O)C(c3ccc(F)cc3)c3ccc(F)cc3)CC2)c1)OCc1ccccc1 [Example 141, Benzyl 3-[1-(3-{[bis(4-fluorophenyl)acetyl]amino}propyl)-4-piperidinyl]phenylcarbamate] | 0.0088
